# Patent US20120034613A1, “Apparatus and Method for Testing Relationships Between Gene Expression and Physical Appearance of Skin” (NSE Products, Inc., priority 2010, published 2012)
# Test system: EpidermFT™ Skin Model (EFT-400) full thickness skin cultures
# Test: Affymetrix GeneChip HG U133 Plus 2.0 microarray global gene expression, agent-exposed vs untreated skin cultures
# Type: cell-based, human
# Conditions: Salicin 0.5% vs Untreated Control, 24 hr; direction down
smiles,measurement,value
"OCc1ccccc1O[C@@H]1O[C@H](CO)[C@@H](O)[C@H](O)[C@H]1O [Salicin, 2-(Hydroxymethyl)phenyl β-D-glucospyranoside]",Fold change IDH2 (210045_at),2.059
same,Fold change IL22RA1 (220056_at),2.023
same,Fold change INPP5D (203332_s_at),2.061
same,Fold change ITGA3 (201474_s_at),2.052
same,Fold change JAG1 (209099_x_at),2.044
same,Fold change JAG1 (216268_s_at),2.123
same,Fold change JMJD7 /// JMJD7-PLA2G4B /// PLA2G4B (222256_s_at),2.101
same,Fold change KCNK7 (224055_x_at),2.127
same,Fold change KCTD15 (222668_at),2.037
same,Fold change KIF1B (209234_at),2.105
same,Fold change KIF1B (225878_at),2.14
same,Fold change KLK1 (216699_s_at),2.169
same,Fold change KRT5 (201820_at),2.154
same,Fold change KRT6A (209125_at),2.034
same,Fold change KRT10 (207023_x_at),2.066
same,Fold change KRTCAP3 (235148_at),2.158
same,Fold change LMNA (212089_at),2.1
same,Fold change LMNA (1554600_s_at),2.053
same,Fold change LMNB1 (203276_at),2.146
same,Fold change LOC284837 (1563088_a_at),2.115
same,Fold change LOC286440 (209733_at),2.16
same,Fold change LOC400027 (226413_at),2.041
same,Fold change LOC401233 (1558882_at),2.002
same,Fold change LOC648245 (227739_at),2.064
same,Fold change LOC652968 (233528_s_at),2.038
same,Fold change LOC727820 (227384_s_at),2.055
same,Fold change LOC100128443 /// MAST4 (210958_s_at),2.131
same,Fold change LOC100128822 (235174_s_at),2.067
same,Fold change LOC100130837 (242255_at),2.078
same,Fold change LOC100131262 (1558152_at),2.081
same,Fold change LOC100131851 /// LOC100134497 /// LOC401002 /// LOC646674 /// SSBP3 (222482_at),2.025
same,Fold change LOC100133772 /// SLC16A5 (206600_s_at),2.044
same,Fold change LOC100134937 (229685_at),2.12
same,Fold change LPHN1 (47560_at),2.092
same,Fold change LY75 (205668_at),2.028
same,Fold change LYSMD4 (228954_at),2.116
same,Fold change MAFB (218559_s_at),2.112
same,Fold change MAPRE2 (202501_at),2.078
same,Fold change MEGF9 (212831_at),2.176
same,Fold change MFAP5 (213764_s_at),2.112
same,Fold change MIB2 (226644_at),2.032
same,Fold change MPP7 (238451_at),2.14
same,Fold change MTHFR (226929_at),2.073
same,Fold change MTMR1 (214975_s_at),2.146
same,Fold change MUC1 (213693_s_at),2.138
same,Fold change MYO18A /// TIAF1 (202039_at),2.04
same,Fold change NBEAL2 (212443_at),2.05
same,Fold change NCF2 (209949_at),2.128
same,Fold change NCRNA00086 (238697_at),2.098
same,Fold change PAIP1 (208051_s_at),2.141
same,Fold change PAIP2B (221868_at),2.043
same,Fold change PAWR (204005_s_at),2.161
same,Fold change PAWR (229515_at),2.15
same,Fold change PDIK1L (227255_at),2.059
same,Fold change PERP (217744_s_at),2.176
same,Fold change PIGW (1558292_s_at),2.085
same,Fold change PLEKHA2 (225136_at),2.159
same,Fold change PLS3 (201215_at),2.167
same,Fold change PNMA2 (209598_at),2.146
same,Fold change POLE2 (205909_at),2.104
same,Fold change POLH (231115_at),2.029
same,Fold change POLR3B (219459_at),2.135
same,Fold change POU3F1 (208345_s_at),2.16
same,Fold change PPAP2C (209529_at),2.033
same,Fold change PPP1CB (201409_s_at),2.054
same,Fold change PPP2CA (208652_at),2.035
same,Fold change PRDX2 (39729_at),2.068
same,Fold change PRKX (204061_at),2.015
same,Fold change PTCH1 (209815_at),2.148
same,Fold change PTGFR (1555097_a_at),2.022
same,Fold change PVRL1 (225211_at),2.08
same,Fold change RAB7B (1553982_a_at),2.095
same,Fold change RAPGEFL1 (218657_at),2.162
same,Fold change RHOV (241990_at),2.107
same,Fold change RICS (203431_s_at),2.143
same,Fold change RNF170 (226104_at),2.034
same,Fold change RORA (235567_at),2.083
same,Fold change RPS6KA5 (204633_s_at),2.051
same,Fold change RPS6KB2 (203777_s_at),2.074
same,Fold change SCRN3 (222849_s_at),2.115
same,Fold change SDCCAG8 (243963_at),2.133
same,Fold change SEMA4D (203528_at),2.021
same,Fold change SERPINB1 (213572_s_at),2.014
same,Fold change SETBP1 (227478_at),2.148
same,Fold change SHROOM2 (204967_at),2.088
same,Fold change SLC5A3 (212944_at),2.165
same,Fold change SLC24A3 (219090_at),2.138
same,Fold change SLC45A4 (225598_at),2.071
same,Fold change SLCO3A1 (219229_at),2.162
same,Fold change SMAP2 (225282_at),2.14
same,Fold change SMCR7 (235896_s_at),2.152
same,Fold change SNX21 (1553960_at),2.031
same,Fold change SNX24 (218705_s_at),2.152
same,Fold change SORD (201563_at),2.01
same,Fold change ST8SIA4 (230836_at),2.021
same,Fold change STK24 (208854_s_at),2.165
same,Fold change SYNGR2 (201079_at),2.14
same,Fold change TANC1 (225308_s_at),2.118
same,Fold change TCEA3 (226388_at),2.034
same,Fold change TCHP (223455_at),2.126
same,Fold change TGOLN2 (1554608_at),2.114
same,Fold change THBD (203888_at),2.109
same,Fold change TIMM22 (219184_x_at),2.067
same,Fold change TMC5 (222904_s_at),2.096
same,Fold change TMEM19 (226860_at),2.032
same,Fold change TMEM45A (219410_at),2.136
same,Fold change TMEM50B (225182_at),2.096
same,Fold change TMEM80 (65630_at),2.031
same,Fold change TP53I3 (210609_s_at),2.13
same,Fold change TRAF3IP2 (202987_at),2.079
same,Fold change TRIM2 (202342_s_at),2.062
same,Fold change TTC30B (1554588_a_at),2.011
same,Fold change VPS4B (218171_at),2.031
same,Fold change WNK1 (39313_at),2.008
